Measurements reported in the Kinase Knowledgebase extract (Sharma et al. 2016).

Target: CDK2 (UniProt P24941)
Assay: Enzyme Assay

Row | Compound | IC50
1 | CC(C)(CO)CNCc1ccc(Nc2ncc(SCc3ncc(C(C)(C)C)o3)s2)nc1 | < 50 µM
2 | CC(C)(C)c1cnc(CSc2cnc(Nc3ccccn3)s2)o1 | < 50 µM
3 | CC(=O)Nc1ncc(SCc2ncc(C(C)(C)C)o2)s1 | < 50 µM
4 | CC(C)(C)c1cnc(CSc2cnc(Nc3cccc(CO)c3)s2)o1 | < 50 µM
5 | CC(C)(C)c1cnc(CSc2cnc(Nc3ccc(S(=O)(=O)NCCO)cc3)s2)o1 | < 50 µM
6 | CC(C)(C)c1cnc(CSc2cnc(NC(=NC#N)Nc3c(F)cccc3F)s2)o1 | < 50 µM

Further lines, results first:

Row | IC50 | Compound
7 | < 50 µM | CC(C)(C)C(=O)Cc1ncc(SCc2ncc(C(C)(C)C)o2)s1
8 | < 50 µM | CC(C)(C)c1cnc(CSc2cnc(Nc3ccc(S(N)(=O)=O)cc3)s2)o1
9 | < 50 µM | CCc1cnc(CSc2cnc(NC(=O)c3ccccc3)s2)o1
10 | < 50 µM | CCc1coc(CSc2cnc(NC(C)O)s2)n1 (centres undefined)
11 | < 50 µM | CC(=O)Nc1ncc(SCc2nc(C)c(C)o2)s1
12 | < 50 µM | CCc1cnc(CSc2cnc(NC(C)=O)s2)o1
13 | < 50 µM | CC(C)(C)c1cnc(CSc2cnc(Nc3ccncn3)s2)o1
14 | < 50 µM | CC(=O)Nc1ncc(SC(F)c2ncc(C(C)C)o2)s1 (centres undefined)
